# Experimental data: paper PMC10145360, “Antiplatelet Aggregation Properties of Cirsilineol: A Novel Inhibitor of Blood Coagulation Factor Xa” (Pharmaceuticals, 2023)
# Several values for one entry are separate records, joined by “and”; a condition that tells them apart may be missing. Equal values may be shown once.
# Legend:
# Factor Xa = target: T1, Factor Xa (Homo sapiens, UniProt P00742); assay: FXa amidolytic activity and inhibitory constant (chromogenic substrate); type: biochemical
# T1 construct: Factor Xa; purchased Haematologic Technologies (Essex Junction, VT, USA)
# Experimental: CSL was dissolved in 50 mM Tris buffer, which has a pH of 7.4, and was added to 150 μL of FXa solution (1 U/mL). This mixture was incubated for 1 min at 37 °C. Additionally, 150 μL of S-2222 solution (1.5 mM) was blended, and for 20 min, the changes in absorbance were observed spectrophotometrically at 405 nm. We used the slope of the curve (Vi) and the absorbance–time curve to determine enzyme activity. Equation (1) was used to compute the CSL inhibitory rates:Inhibitory rate (%) = (V0 − Vi)/V0 × 100(1) where Vi and V0 represent the slopes of the samples and the vehicle, respectively.
# (§1) Ki values were calculated based on chromogenic substrate experiments. CSL was employed in each assay at a minimum of seven concentrations in duplicate to obtain an inhibition curve. A total of 50 μL of substrate was combined with 25 μL of each chemical solution, inhibitor solution, or blank buffer. Before the plate was allocated into the Labsystems IEMS microtiter plate reader (Cergy Pontoise, France), 25 μL of the enzyme solution was mixed. The plate was allowed for 1 h at 37 °C before analysis. We continuously observed the formation of p-nitroaniline produced when the substrate was hydrolyzed using spectrophotometry at 405 nm. The maximum initial reaction rates were computed as the millioptical density per minute. A Dixon plot of 1/Vmax versus inhibitor concentration was used to fit the curve and determine the Ki values.
# Plasmin = target: T2, Plasmin (Homo sapiens, UniProt P00747); assay: Inhibitory constant, chromogenic substrate assay; type: biochemical
# T2 construct: S-2251 for plasmin; purchased Haematologic Technologies (Essex Junction, VT, USA)
# Experimental: as §1
# Protein Ca = target: T3, Protein Ca (Homo sapiens, UniProt P04070); assay: Inhibitory constant, chromogenic substrate assay; type: biochemical
# T3 construct: purchased Haematologic Technologies (Essex Junction, VT, USA)
# Experimental: as §1
# tPA = target: T4, tPA (Homo sapiens, UniProt P00750); assay: Inhibitory constant, chromogenic substrate assay; type: biochemical
# T4 construct: purchased Haematologic Technologies (Essex Junction, VT, USA)
# Experimental: as §1
# α-Thrombin = target: T5, α-Thrombin (Homo sapiens, UniProt P00734); assay: Inhibitory constant, chromogenic substrate assay; type: biochemical
# T5 construct: α-Thrombin; purchased Haematologic Technologies (Essex Junction, VT, USA)
# Experimental: as §1
# human platelets = assay: Intracellular Ca2+ mobilization (Fura-2); type: cell-based; settings: ADP 10 μM or U46619 6 μM; extracellular Ca2+ 1 mM
# Experimental: Figure 6 Effects of CSL on activation of protein kinase CPKC activation and mobilization of intracellular calcium. (A) Rinsed platelets were incubated with DMSO or CSL (10 or 20 μM) for 10 min at 37 °C, and stimulation of ADP (10 μM, left) or U46619 (6 μM, right) was given for 1 min. The phosphorylation level of MARCKS in the platelets was determined with western blotting. Representative images from each group are shown (n = 3). Densitometric intensities of each signaling pathway component normalized to β-actin or total protein. (B,C) Human platelets preloaded with Fura-2 were incubated with DMSO (D) or CSL with extracellular Ca^2+ (1 mM) for 10 min at 37 °C, and ADP ((B) 10 μM) or U46619 ((C) 6 μM) stimulation was given to induce an increase in [Ca^2+]i. Data are shown as mean values ± SD of five independent experiments. * p < 0.05 vs. ADP (A,B) or U46619 (A,C) alone. D = 0.2% DMSO, used as the vehicle control.
# The amount of intracellular Ca^2+ ([Ca^2+]i) of platelets was measured as previously described. […] Grynkiewicz et al. proposed an equation for calculating the [Ca^2+]i by measuring the intensity of fluorescence signals (excitation/emission wavelengths: 339/500 nm) obtained from the platelets.
# [1] = tested on: human umbilical vein endothelial cells (HUVECs); assay: NO and ET-1 production, ELISA; type: cell-based; settings: ADP or U46619 treated
# T1 sequence (P00742 235-488 limits assumed): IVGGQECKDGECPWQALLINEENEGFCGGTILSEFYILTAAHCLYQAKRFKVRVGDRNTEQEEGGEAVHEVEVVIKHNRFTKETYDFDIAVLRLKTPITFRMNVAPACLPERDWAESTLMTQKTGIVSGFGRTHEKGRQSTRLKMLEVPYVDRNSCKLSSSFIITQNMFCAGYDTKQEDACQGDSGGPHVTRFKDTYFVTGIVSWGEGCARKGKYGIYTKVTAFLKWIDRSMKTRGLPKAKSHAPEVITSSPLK
# T1 sequence (P00742 41-179 partner limits assumed): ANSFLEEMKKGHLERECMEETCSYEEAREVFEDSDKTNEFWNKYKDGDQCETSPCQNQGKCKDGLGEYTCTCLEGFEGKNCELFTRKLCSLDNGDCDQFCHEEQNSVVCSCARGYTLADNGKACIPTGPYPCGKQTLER
# T4 sequence (P00750 36-562): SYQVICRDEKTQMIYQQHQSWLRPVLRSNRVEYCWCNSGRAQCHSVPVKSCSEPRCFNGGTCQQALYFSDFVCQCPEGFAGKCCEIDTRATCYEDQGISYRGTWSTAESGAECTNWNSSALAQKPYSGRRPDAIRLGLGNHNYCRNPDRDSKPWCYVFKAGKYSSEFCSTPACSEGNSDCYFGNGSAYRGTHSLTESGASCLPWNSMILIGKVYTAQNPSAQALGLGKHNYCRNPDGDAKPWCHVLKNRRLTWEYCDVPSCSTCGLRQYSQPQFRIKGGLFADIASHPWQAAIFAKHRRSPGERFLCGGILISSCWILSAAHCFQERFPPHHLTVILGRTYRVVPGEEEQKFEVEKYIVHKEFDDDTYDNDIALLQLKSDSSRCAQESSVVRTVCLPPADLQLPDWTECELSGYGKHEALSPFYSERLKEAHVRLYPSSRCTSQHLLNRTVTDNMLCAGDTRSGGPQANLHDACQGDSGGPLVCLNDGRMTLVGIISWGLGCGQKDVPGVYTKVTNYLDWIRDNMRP
# T3 sequence (P04070 212-450 limits assumed): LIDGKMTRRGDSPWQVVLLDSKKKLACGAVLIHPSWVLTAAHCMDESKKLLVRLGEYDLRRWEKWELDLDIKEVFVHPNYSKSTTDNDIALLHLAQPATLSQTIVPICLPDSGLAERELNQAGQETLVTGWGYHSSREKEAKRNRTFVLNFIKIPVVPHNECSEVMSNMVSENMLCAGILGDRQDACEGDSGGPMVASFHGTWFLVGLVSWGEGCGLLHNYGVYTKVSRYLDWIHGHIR
# T3 sequence (P04070 43-197 partner limits assumed): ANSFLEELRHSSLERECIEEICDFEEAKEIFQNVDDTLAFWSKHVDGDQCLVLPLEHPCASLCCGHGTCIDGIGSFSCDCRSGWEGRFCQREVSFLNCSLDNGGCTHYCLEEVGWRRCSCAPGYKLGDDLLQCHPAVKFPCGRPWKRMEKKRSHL
# T2 sequence (P00747 581-810 limits assumed): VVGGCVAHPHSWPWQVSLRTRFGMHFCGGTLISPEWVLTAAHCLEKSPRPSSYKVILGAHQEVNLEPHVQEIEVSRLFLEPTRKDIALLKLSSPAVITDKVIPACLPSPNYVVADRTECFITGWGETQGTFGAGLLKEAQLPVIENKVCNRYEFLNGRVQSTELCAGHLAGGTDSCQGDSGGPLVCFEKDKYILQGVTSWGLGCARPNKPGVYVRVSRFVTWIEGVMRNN
# T2 sequence (P00747 97-580 partner limits assumed): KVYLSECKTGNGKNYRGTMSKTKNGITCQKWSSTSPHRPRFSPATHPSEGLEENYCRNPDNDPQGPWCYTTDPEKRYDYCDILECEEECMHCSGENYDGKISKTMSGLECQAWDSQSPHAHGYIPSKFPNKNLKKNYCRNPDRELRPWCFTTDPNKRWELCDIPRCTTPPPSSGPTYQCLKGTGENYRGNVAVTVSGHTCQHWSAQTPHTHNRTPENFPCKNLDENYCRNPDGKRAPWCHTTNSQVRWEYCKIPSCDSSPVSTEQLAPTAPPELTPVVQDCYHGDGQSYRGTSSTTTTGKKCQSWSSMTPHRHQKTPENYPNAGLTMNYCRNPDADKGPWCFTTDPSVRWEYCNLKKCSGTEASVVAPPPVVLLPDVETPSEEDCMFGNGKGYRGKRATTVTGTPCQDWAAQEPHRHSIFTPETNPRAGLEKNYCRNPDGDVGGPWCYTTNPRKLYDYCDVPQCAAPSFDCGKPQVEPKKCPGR
compound,measurement,setting,value
"COc1cc(-c2cc(=O)c3c(O)c(OC)c(OC)cc3o2)ccc1O [CSL, 4,5-dihydroxy-3,6,7-trimethoxyflavone]",Km value of FXa on S-2222,Factor Xa,increase
same,Vmax of FXa on S-2222,Factor Xa,decrease
same,selectivity ratio (based on Ki values) for FXa compared to other enzymes examined,Factor Xa,> 300
same,slope of Michaelis–Menten plot,"Factor Xa; CSL 10 μM, FXa on S-2222",0.568
same,slope of Michaelis–Menten plot,"Factor Xa; CSL 20 μM, FXa on S-2222",0.759
same,inhibitory pattern (Lineweaver–Burk plot),Factor Xa; FXa on S-2222,mixed-type inhibitory pattern
same,Ratio = Ki enzyme/Ki Factor Xa,Factor Xa; Factor Xa,1
same,Ki,"Factor Xa; Factor Xa, chromogenic substrate S-2222, Dixon plot",3.71 µM and 3.7 µM
same,Ki,Plasmin,> 300 µM
same,Ratio = Ki enzyme/Ki Factor Xa,Plasmin,>100
same,Ki,Protein Ca,> 300 µM
same,Ratio = Ki enzyme/Ki Factor Xa,Protein Ca,>100
same,Ki,tPA,> 300 µM
same,Ratio = Ki enzyme/Ki Factor Xa,tPA,>100
same,Ki,α-Thrombin,> 300 µM
same,Ratio = Ki enzyme/Ki Factor Xa,α-Thrombin,>100
same,ADP- and U46619-induced elevations in [Ca2+]i,human platelets,inhibited
same,NO secretion,[1],returned the decreased NO secretion caused by ADP or U46619 to their baseline levels
same,production of ET-1,[1],returned the increased production of ET-1
